Assays:
[1] = molecular target: T1, MMP-9 (catalytic domain, human, recombinant) (Homo sapiens, UniProt P14780); test: MMP-9 inhibition assay of boronic ester proinhibitors (IC50; activation with H2O2); assay type: biochemical; conditions: active inhibitor; read-out: IC50 against MMP-9
T1 construct: MMP-9 (catalytic domain, human, recombinant); purchased BIOMOL International
Procedure: MMP-9 (catalytic domain, human, recombinant) and MMP-12 (catalytic domain, human, recombinant) were purchased from Enzo Life Sciences. The assays were carried out in 96-well plates using a Bio-Tek Flx 800 plate reader. IC50 values were obtained for proinhibitors B17 and B18 against MMP-9 and MMP-12. Serial dilutions of the compounds dissolved in DMSO were incubated at 37° C. for 30 minutes with 20 μL of the appropriate MMP (0.45 U/mL for MMP-9 and 0.35 U/mL for MMP-12) in MMP assay buffer (50 mM HEPES, 10 mM CaCl2, 0.10% Brij-35, pH 7.5), for a total volume of 99 pt. The reaction was initiated by the addition of 1 μL (400 μM) of the fluorescent substrate (Mca-Pro-Leu-Gly-Leu-Dpa-Ala-Arg-NH2 where Mca=(7-methoxycoumarin-4-yl)-acetyl and Dpa=N-3-(2,4-dinitrophenyl)-L-α-β-diaminopropionyl)) and kinetic activity was measured every minute for 20 min with excitation and emission wavelengths at 335 nm and 405 nm, respectively. Measurements were performed in duplicate. The percent inhibition was plotted versus the inhibitor concentration. A linear fit of the data for each experiment gives the IC50 value of the inhibitor where y=50%.
MMP activity in the presence of H2O2 was evaluated with both MMP-9 and MMP-12 with 1 h of activation at concentrations close to their IC50 values. Using the calculated rate constants for the protected ZBGs B19 and B20, it was determined that 1 h of activation time for each proinhibitor with 100 μM H2O2 will provide enough 1,2-HOPO-2 or PY-2 to inhibit the MMPs at 50%. For example, for proinhibitor B17 with MMP-9, if the rate=k[B17][H2O2] and k=3.9 M^−1s^−1, [B17]=10 μM, and [H2O2]=100 μM, the rate of conversion would be 3.9×10^−9 M/s. Therefore, activation for 1 h would release 14 μM 1,2-HOPO-2, or enough inhibitor to provide approximately 50% inhibition of MMP-9 (IC50 value for 1,2-HOPO-2 against MMP-9 is ˜6 μM).
In each well, 1 μL of proinhibitors B17 and B18 and the inhibitors 1,2-HOPO-2 and PY-2 in DMSO (1 mM for MMP-9 or 5 μM for MMP-12) were incubated for 1 h at 37° C. with 10 μL H2O2 (1 mM in HEPES buffer, pH 7.5) in MMP assay buffer for a total volume of 79 pt. […] After activation of the proinhibitors, 20 μL of the appropriate MMP (0.45 U/mL for MMP-9 and 0.35 U/mL for MMP-12) was added and incubated for an additional 30 min. The reaction was initiated by the addition of 1 pt (400 μM) of the fluorescent substrate and kinetic activity was measured every minute for 20 min with excitation and emission wavelengths at 335 nm and 405 nm, respectively. Enzyme activity with inhibitor was calculated with respect to the control experiment (no inhibitor present). Measurements were performed in duplicate in two independent experiments.

MMP-3 = MMP-3 (Homo sapiens, UniProt P08254); conditions: read-out: IC50 against MMP-3; cited from earlier work
MMP-3, sequence (P08254 100-477, species assumed): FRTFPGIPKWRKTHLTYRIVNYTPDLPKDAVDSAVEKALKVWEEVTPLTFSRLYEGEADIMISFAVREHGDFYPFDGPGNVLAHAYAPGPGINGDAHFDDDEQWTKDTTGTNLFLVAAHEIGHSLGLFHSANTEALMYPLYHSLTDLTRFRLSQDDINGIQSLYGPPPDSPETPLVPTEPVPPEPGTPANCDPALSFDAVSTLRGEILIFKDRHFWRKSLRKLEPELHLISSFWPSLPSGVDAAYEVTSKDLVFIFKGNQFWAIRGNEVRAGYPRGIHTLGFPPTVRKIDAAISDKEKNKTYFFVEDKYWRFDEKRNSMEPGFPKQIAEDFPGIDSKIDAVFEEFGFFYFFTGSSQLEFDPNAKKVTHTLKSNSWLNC

MMP-8 = MMP-8 (Homo sapiens, UniProt P22894); conditions: read-out: IC50 against MMP-8; cited from earlier work
MMP-8, sequence (P22894 101-467): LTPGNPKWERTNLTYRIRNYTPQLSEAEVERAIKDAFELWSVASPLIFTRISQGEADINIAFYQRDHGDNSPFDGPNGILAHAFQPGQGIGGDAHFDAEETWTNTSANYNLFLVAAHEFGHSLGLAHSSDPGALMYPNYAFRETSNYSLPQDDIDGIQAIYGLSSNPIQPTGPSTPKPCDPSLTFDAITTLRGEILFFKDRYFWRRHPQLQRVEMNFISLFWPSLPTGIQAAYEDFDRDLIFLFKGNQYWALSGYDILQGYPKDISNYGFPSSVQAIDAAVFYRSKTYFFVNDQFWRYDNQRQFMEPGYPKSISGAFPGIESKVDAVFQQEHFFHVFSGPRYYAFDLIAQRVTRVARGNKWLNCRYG

MMP-12 = MMP-12 (Homo sapiens, UniProt P39900); conditions: read-out: IC50 against MMP-12; cited from earlier work
MMP-12, sequence (P39900 106-470): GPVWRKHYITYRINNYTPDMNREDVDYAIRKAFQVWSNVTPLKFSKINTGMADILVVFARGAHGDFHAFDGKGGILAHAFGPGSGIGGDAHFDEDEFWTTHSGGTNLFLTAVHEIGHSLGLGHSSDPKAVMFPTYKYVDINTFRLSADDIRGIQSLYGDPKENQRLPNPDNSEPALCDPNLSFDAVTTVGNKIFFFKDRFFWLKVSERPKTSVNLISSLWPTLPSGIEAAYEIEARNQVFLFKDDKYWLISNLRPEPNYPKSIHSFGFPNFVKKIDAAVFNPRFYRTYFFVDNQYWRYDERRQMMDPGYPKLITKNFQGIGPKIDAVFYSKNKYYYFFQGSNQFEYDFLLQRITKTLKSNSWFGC

[2] = Cleavage of boronic ester/acid protected compounds by H2O2 (UV-Vis, rate constant, HPLC); assay type: physicochemical; conditions: for k, pseudo first-order rate constants calculated with an excess of H2O2: 50 μM in HEPES buffer pH 7.5, room temperature; for rate constant of conversion with an excess of H2O2: pseudo-first order conditions, HEPES buffer
Procedure: (§1) Absorption spectra of compounds B1-B16 were taken on a Perkin-Elmer Lambda 25 UV-visible spectrophotometer. To a 1.0 mL solution at 0.05 mM concentration in HEPES buffer (50 mM, pH 7.5) was added H2O2 (10 uL (0.09 M) in HEPES for compounds B1-B12 and B14-B16, 10 uL (0.9 M) in HEPES for compound B3, and 2.8 uL (0.09 M) in HEPES for compound B13). Spectra were monitored over time at room temperature. Absorption spectra of compounds B17-B21 were taken on a Perkin-Elmer Lambda 25 UV-visible spectrophotometer. To a 1.0 mL solution at 0.05 mM concentration of compounds 1-7 in HEPES buffer (50 mM, pH=7.5) was added H2O2 (10 uL, 0.09 M in HEPES) or KO2 (0.10 mM) with catalase (5 U). Hydrolytic stability was measured by monitoring samples of B19-B21 in HEPES buffer for a 24 h time period. Spectra were monitored over time at room temperature.
The pseudo-first order rate constant was calculated by monitoring the absorption spectra over time in the presence of excess hydrogen peroxide. To a 1.0 mL solution of compounds B1-B3 and B10-B14 in HEPES buffer (50 mM, pH 7.5) at 50 μM was added H2O2 to final concentrations of 150 μM, 250 μM, 500 μM, 750 μM, and 900 μM. Spectra were monitored over 15-30 min at room temperature with at least 50 spectra recorded. The change in absorption at 302 nm for B1-B3, 272 nm for B10, 312 nm for B11, 268 for B12, 306 nm for B13, and 303 nm for B14 were monitored. For compounds B1-B3 and B10-B11, the rate constant (kobs) was found from monitoring the appearance of the monitored absorption peak by plotting the linear slope of ln [(A∞−At)/(A∞)] vs. time (where A∞ is the absorbance of a 50 μM sample of the methyl salicylate for B1-B3, maltol for B10, and 1,2-HOPO for B11). For compounds B12-B14 the rate constant (kobs) was found from monitoring the disappearance of the monitored absorption peak by plotting the linear slope of ln [(A−AZBG)/(A0−AZBG)] vs. time (where AZBG is the absorbance of a 50 μM sample of the ZBG and A0 is the initial absorbance of […]).^3 The rate of conversion was determined from the slope of the line of kobs vs. [H2O2]. The pseudo-first order rate constant was calculated following literature procedure.^[15] To a 1.0 mL solution of compounds B19-B21 in HEPES buffer at 50 μM was added H2O2 to final concentrations of 150 μM, 250 μM, 500 μM, 750 μM, and 900 μM. Spectra were monitored over 15-30 min at room temperature with at least 50 spectra recorded. The change in absorption at 292 nm for B19 and 252 nm for B20 and B21 were monitored. The rate constant (kobs) was found from the linear slope of ln [(A−AZBG)/(A0−AZBG)] vs. time (where AZBG is the absorbance of a 50 μM sample of the ZBG and A0 is the initial absorbance of B19-B21). The rate of conversion was determined from the slope of the line of kobs vs. [H2O2].
Analytical HPLC was performed on a HP Series 1050 system equipped with a Vydac® C18 reverse phase column (218 TP, 250×4.6 mm, 5 μm). […] Starting with 95% A and 5% B, an […] gradient was run for 15 min to a final solvent mixture of 5% A and 95% B, which was held for 5 min before ramping back down to 95% A and 5% B in 2 min and holding for an additional 4 min. Compounds were prepared in HEPES buffer (50 mM, pH 7.5) at a concentration of 1 mM. Retention times of compounds were determined under identical HPLC conditions prior to and after reaction with H2O2. LC-MS(+) was performed on compounds B6, B15 and B16 to confirm cleavage of the boronic ester to the phenolic moiety.

[3] = Solubility in buffered solution / water; assay type: physicochemical; conditions: relative to the parent analog
[4] = Hydrolytic stability of boronic ester compounds in HEPES buffer; assay type: physicochemical; conditions: 24 h time period
Procedure: as §1

[5] = Stability of protected ZBGs towards KO2 with catalase; assay type: physicochemical; conditions: KO2 0.10 mM and catalase 5 U, 60 min
Procedure: as §1

[6] = Cleavage of sulfonate ester PZBGs and proMMPi by H2O2 (UV-Vis, rate constant, HPLC); assay type: physicochemical; conditions: 50 μM in HEPES buffer, room temperature
Procedure: (§2) Absorption spectra of compounds were taken on a Perkin-Elmer Lambda 25 UV-Visible Spectrophotometer. To a 1.0 mL solution at 0.05 mM concentration of each compound in HEPES buffer (50 mM, pH 7.5) was added H2O2 (10 μL, 0.09M in HEPES) and absorption spectra were monitored over time at room temperature. Hydrolytic stability was measured by monitoring each sample in HEPES buffer over a 24 hour time period.
The pseudo-first order rate constant was calculated following literature procedure. To a 1.0 mL solution of compounds PZBG-1a, PZBG-1b, PZBG-1e, PZBG-5a, and PZBG-5b in HEPES buffer at 50 μM was added H2O2 to final concentrations of 150 μM, 250 μM, 500 μM, 750 μM, and 900 μM. Spectra were monitored over 15-30 min at room temperature with at least 50 spectra recorded at every concentration. The change in absorption at 298 nm for PZBG-1a and PZBG-1b were monitored, while the change in absorption at 288 nm was recorded for PZBG-1e, and 310 nm for PZBG-5a and PZBG-5b. The rate constant (kobs) was found from the linear slope of ln [(A−AZBG)/(Ao−AZBG)] vs. time where AZBG is the absorbance of a 50 μM sample of the ZBG or full-length inhibitor and AO is the initial absorbance of PZBG-1a, PZBG-1b, PZBG-1e, PZBG-5a, and PZBG-5b. The rate of conversion was determined from the slope of the line of kobs vs. [H2O2].
Analytical HPLC was performed on a HP Series 1050 system equipped with a Vydac® C18 reverse phase column (218 TP, 250×4.6 mm, 5 μm). […] Starting with 95% A and 5% B, an […] gradient was run for 15 min to a final solvent mixture of 5% A and 95% B, which was held for 5 min before ramping back down to 95% A and 5% B in 2 min and holding for an additional 4 min. Compounds ZBG-1a and PZBG-1a were prepared in HEPES buffer (50 mM, pH 7.5) at a concentration of 1 mM and retention times were determined. To evaluate cleavage by H2O2, a 1 mM solution of PZBG-1a in HEPES buffer was reacted with a 20-fold excess of H2O2 before analyzing under identical HPLC conditions as before.

[7] = Hydrolytic stability of sulfonate esters in HEPES buffer; assay type: physicochemical; conditions: in 6 h
Procedure: as §2

T1 sequence (P14780 107-444 limits assumed): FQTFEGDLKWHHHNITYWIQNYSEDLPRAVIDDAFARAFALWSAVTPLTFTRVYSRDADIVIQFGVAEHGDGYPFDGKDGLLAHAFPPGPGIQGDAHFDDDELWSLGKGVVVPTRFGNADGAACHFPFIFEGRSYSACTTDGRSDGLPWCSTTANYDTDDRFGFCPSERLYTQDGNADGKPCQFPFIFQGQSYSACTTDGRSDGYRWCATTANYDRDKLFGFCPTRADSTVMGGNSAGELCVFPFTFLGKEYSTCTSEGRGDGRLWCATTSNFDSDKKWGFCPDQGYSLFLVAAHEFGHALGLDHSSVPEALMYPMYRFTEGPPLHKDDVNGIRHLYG

solubility [3]	solution stability in buffer [4]	stability towards KO2 [5]	SMILES	k, pseudo first-order rate constants calculated with an excess of H2O2 [2] [M⁻¹ s⁻¹]	rate constant of conversion with an excess of H2O2 [2] [M⁻¹ s⁻¹]	other results
			O=C(NCc1ccc(-c2ccccc2)cc1)c1cccc(=O)n1O [1,2-HOPO-2, N-(Biphenyl-4-ylmethyl)-1-hydroxy-6-oxo-1,6-dihydropyridine-2-carboxamide]			IC50 [1]: ~6000 nM; IC50 (MMP-3): < 100 nM; IC50 (MMP-8): < 100 nM; IC50 (MMP-12): < 100 nM
improved solubility			Cc1occc(=O)c1OCc1ccc(B(O)O)cc1 [Compound B10, (4-(((2-Methyl-4-oxo-4H-pyran-3-yl)oxy)methyl)phenyl)boronic acid]	3.1 ± 0.5		
improved solubility			O=c1ccccn1OCc1ccc(B(O)O)cc1 [Compound B11, (4-(((2-Oxopyridin-1(2H)-yl)oxy)methyl)phenyl)boronic acid]	5.9 ± 0.2	5.9	
	stable	stable towards KO2	CC1(C)OB(c2ccc(COn3ccccc3=O)cc2)OC1(C)C [Compound B19, 1-((4-(4,4,5,5-tetramethyl-1,3,2-dioxaborolan-2-yl)benzyl)oxy)pyridin-2(1H)-one]		4.0	
	stable	stable towards KO2	Cc1occc(=O)c1OCc1ccc(B2OC(C)(C)C(C)(C)O2)cc1 [Compound B20, 2-methyl-3-((4-(4,4,5,5-tetramethyl-1,3,2-dioxaborolan-2-yl)benzyl)oxy)-4H-pyran-4-one]		2.9	
substantial increase in solubility			O=C(O)c1ccc(S(=O)(=O)On2ccccc2=O)cc1 [PZBG-1e, 4-(((2-Oxopyridin-1(2H)-yl)oxy)sulfonyl)benzoic acid]			pseudo-first order rate constant with an excess of H2O2 [6]: 1.3 M⁻¹ s⁻¹; cleavage in buffer [7]: ~50%
